Results taken from paper PMC9516332 (Frontiers in Oncology, 2022).
Read-outs that look alike come from different tables or passages of the source.

Tested on: 134 cancer cell lines
Experiment: Cell viability assay (ATPlite, 72 hours), IC50 on cancer cell line panel

Cc1cc(Nc2ncnc3ccc(NC4=NC(C)(C)CO4)cc23)ccc1Oc1ccn2ncnc2c1 [tucatinib]
IC50 (Homo sapiens, MOLT-4, read-out: IC50 in cell proliferation assay, MOLT-4 cell line): 20.3 µM | IC50 (Homo sapiens, MV4-11, read-out: IC50 in cell proliferation assay, MV4-11 cell line (FLT3 ITD)): 19.1 µM | IC50 (Homo sapiens, MeWo, read-out: IC50 in cell proliferation assay, MeWo cell line): > 31.6 µM | IC50 (Homo sapiens, NCCIT, read-out: IC50 in cell proliferation assay, NCC-IT cell line): > 31.6 µM | IC50 (Homo sapiens, NCI-H82, read-out: IC50 in cell proliferation assay, cell line NCI-H82): 20.4 µM | IC50 (Homo sapiens, NCI-H460, read-out: IC50 in cell proliferation assay, NCI-H460 cell line): 30.4 µM | IC50 (Homo sapiens, NCI-H661, read-out: IC50 in cell proliferation assay, NCI-H661 cell line): 26.9 µM | IC50 (Homo sapiens, NCI-H716, read-out: IC50 in cell proliferation assay, cell line NCI-H716 (FGFR2-COL14A1)): 29.5 µM | IC50 (Homo sapiens, NCI-H1650, read-out: IC50 in cell proliferation assay, NCI-H1650 cell line (EGFR exon19del)): > 31.6 µM | IC50 (Homo sapiens, NCI-H1975, read-out: IC50 in cell proliferation assay, NCI-H1975 cell line (EGFR p.L858R + p.T790M)): 24.5 µM | IC50 (Homo sapiens, NCI-H2228, read-out: IC50 in cell proliferation assay, NCI-H2228 cell line (EML4-ALK)): > 31.6 µM | IC50 (Homo sapiens, OVCAR-3, read-out: IC50 in cell proliferation assay, cell line OVCAR-3): > 31.6 µM | IC50 (Homo sapiens, PFSK-1, read-out: IC50 in cell proliferation assay, cell line PFSK-1): 19 µM | IC50 (Homo sapiens, RL95-2, read-out: IC50 in cell proliferation assay, cell line RL95-2 (EGFR p.A289V)): 1.76 µM | IC50 (Homo sapiens, RPMI-7951, read-out: IC50 in cell proliferation assay, cell line RPMI-7951 (BRAF p.V600E)): 15.8 µM | IC50 (Homo sapiens, RS4-11, read-out: IC50 in cell proliferation assay, cell line RS4;11): 24.4 µM | IC50 (Homo sapiens, Rec1, read-out: IC50 in cell proliferation assay, cell line REC-1): 12 µM | IC50 (Homo sapiens, SHP77, read-out: IC50 in cell proliferation assay, cell line SHP-77): 22.8 µM | IC50 (Homo sapiens, SK-BR-3, read-out: IC50 in cell proliferation assay, cell line SK-BR-3 (ERBB2 amplification)): 0.022 µM | IC50 (Homo sapiens, SK-N-AS, read-out: IC50 in cell proliferation assay, cell line SK-N-AS): 25.2 µM | IC50 (Homo sapiens, SK-N-FI, read-out: IC50 in cell proliferation assay, cell line SK-N-FI): > 31.6 µM | IC50 (Homo sapiens, SK-N-MC, read-out: IC50 in cell proliferation assay, cell line SK-N-MC): 15.1 µM | IC50 (Homo sapiens, SK-N-SH, read-out: IC50 in cell proliferation assay, cell line SK-N-SH (ALK p.F1174L)): 24.9 µM | IC50 (Homo sapiens, SNU-5, read-out: IC50 in cell proliferation assay, cell line SNU-5 (MET amplification)): 24.6 µM | IC50 (Homo sapiens, SNU-16, read-out: IC50 in cell proliferation assay, cell line SNU-16 (FGFR2 amplification)): 20.5 µM | IC50 (Homo sapiens, SNU-C2B, read-out: IC50 in cell proliferation assay, cell line SNU-C2B (EGFR p.R165Q)): > 31.6 µM | IC50 (Homo sapiens, SU-DHL-1, read-out: IC50 in cell proliferation assay, cell line SU-DHL-1 (NPM1-ALK)): 15.7 µM | IC50 (Homo sapiens, SU-DHL-6, read-out: IC50 in cell proliferation assay, cell line SU-DHL-6): 15.3 µM | IC50 (Homo sapiens, SUP-T1, read-out: IC50 in cell proliferation assay, cell line SUP-T1): > 31.6 µM | IC50 (Homo sapiens, SW48, read-out: IC50 in cell proliferation assay, cell line SW48 (EGFR p.G719S)): 17.4 µM | IC50 (Homo sapiens, SW480, read-out: IC50 in cell proliferation assay, cell line SW480): > 31.6 µM | IC50 (Homo sapiens, SW626, read-out: IC50 in cell proliferation assay, cell line SW626): 23.5 µM | IC50 (Homo sapiens, SW780, read-out: IC50 in cell proliferation assay, cell line SW780 (FGFR3-BAIAP2L1)): 22.7 µM | IC50 (Homo sapiens, SW837, read-out: IC50 in cell proliferation assay, cell line SW837): > 31.6 µM | IC50 (Homo sapiens, SW872, read-out: IC50 in cell proliferation assay, cell line SW872 (BRAF p.V600E)): 31.4 µM | IC50 (Homo sapiens, SW900, read-out: IC50 in cell proliferation assay, cell line SW900): > 31.6 µM | IC50 (Homo sapiens, SW948, read-out: IC50 in cell proliferation assay, cell line SW948): > 31.6 µM | IC50 (Homo sapiens, SW982, read-out: IC50 in cell proliferation assay, cell line SW982 (BRAF p.V600E)): > 31.6 µM | IC50 (Homo sapiens, SW-620, read-out: IC50 in cell proliferation assay, cell line SW620): > 31.6 µM | IC50 (Homo sapiens, T98G, read-out: IC50 in cell proliferation assay, cell line T98G): 30.1 µM | IC50 (Homo sapiens, TCC-SUP, read-out: IC50 in cell proliferation assay, cell line TCCSUP): 30.4 µM | IC50 (Homo sapiens, THP-1, read-out: IC50 in cell proliferation assay, cell line THP-1): > 31.6 µM | IC50 (Homo sapiens, U2OS, read-out: IC50 in cell proliferation assay, cell line U2OS): 22.1 µM | IC50 (Homo sapiens, U-87 MG, read-out: IC50 in cell proliferation assay, cell line U-87MG ATCC): > 31.6 µM | IC50 (Homo sapiens, U-118-MG, read-out: IC50 in cell proliferation assay, cell line U-118MG): 25 µM | IC50 (Homo sapiens, UMUC3, read-out: IC50 in cell proliferation assay, cell line UM-UC-3): 8.4 µM | IC50 (Hs766T, read-out: IC50 in cell proliferation assay, Hs 766T cell line): > 31.6 µM | IC50 (L-82, read-out: IC50 in cell proliferation assay, L-82 cell line (NPM1-ALK)): > 31.6 µM | IC50 (Rh30, read-out: IC50 in cell proliferation assay, cell line Rh30): 25.8 µM | IC50 (read-out: IC50 in cell proliferation assay, 11-18 cell line (EGFR p.L858R)): 0.825 µM | IC50 (read-out: IC50 in cell proliferation assay, Hs 852.T cell line): > 31.6 µM | IC50 (read-out: IC50 in cell proliferation assay, JAR cell line): 24.1 µM | IC50 (read-out: IC50 in cell proliferation assay, cell line 5637): 8.88 µM | IC50 (read-out: IC50 in cell proliferation assay, cell line A-388): 15.9 µM | IC50 (read-out: IC50 in cell proliferation assay, cell line DB): 19.2 µM | IC50 (read-out: IC50 in cell proliferation assay, cell line DEL (NPM1-ALK)): > 31.6 µM | IC50 (read-out: IC50 in cell proliferation assay, cell line ES-2 (BRAF p.V600E)): 18.4 µM | IC50 (read-out: IC50 in cell proliferation assay, cell line PA-1): 21.1 µM | IC50 (read-out: IC50 in cell proliferation assay, cell line PC-3): 26.8 µM | IC50 (read-out: IC50 in cell proliferation assay, cell line RD): 28.8 µM | IC50 (read-out: IC50 in cell proliferation assay, cell line RKO (BRAF p.V600E)): 13.1 µM | IC50 (read-out: IC50 in cell proliferation assay, cell line RL): 24 µM | IC50 (read-out: IC50 in cell proliferation assay, cell line RT-4 (FGFR3-TACC3)): 9.99 µM | IC50 (read-out: IC50 in cell proliferation assay, cell line SR (NPM1-ALK)): 16.8 µM | IC50 (read-out: IC50 in cell proliferation assay, cell line T24): 20.1 µM | IC50 (read-out: IC50 in cell proliferation assay, cell line TT (RET p.C634W)): > 31.6 µM | IC50 (read-out: IC50 in cell proliferation assay, cell line VA-ES-BJ): 25.9 µM
